Test results: patent publication US10821276B2, “System and method to locally deliver therapeutic agent to inner ear” (The Trustees of Columbia University in the City of New York, priority 2012, dated 2020)
Where “and” joins values, the source holds several entries; their conditions need not be identical. Equal entries are not always repeated.

Assays:
[1] = intact RWM, cited from earlier work
[2] = Permeability of one pore estimated from diffusion coefficient and membrane thickness (P=D/h); 1% area perforation improvement; conditions: for Ppore: D/h, membrane thickness 10 μm, guinea pig
Excerpt: From Fick's first law, diffusion is described by J=−D∇ϕ (1) where J is diffusion flux in mol/m^2*s, D is the diffusion coefficient in m^2/s, and ϕ is the concentration in mol/l. Then from a one-dimensional simplification of the pore
[formula] This can be further simplified with the gradient is uniform across the pore to obtain
[formula] where x is the axis through the pore in m, cx is the concentration at both ends in mol/l, and h is the RWM thickness in m. Then from the definition of flux
[formula] the permeability of the membrane is Flux=−PA(c1−c0) (5) where P=D/h is the permeability in m/s.
Thus the permeability of one pore can be estimated from the diffusion coefficient and the thickness of the membrane (10 μm, guinea pig).

[3] = Diffusion of 500 μM rhodamine B across RWM in Franz Cell, with and without manual perforation (10 μm / 100 μm needle); format: in vitro ADME, guinea pig
Procedure: In another embodiment, a model for measuring diffusion across a guinea pig RWM, was developed and tested. The model is applicable for analysis of the RWM both with and without microperforations. Semicircular canals were removed from the pigs and RWM exposed prior to perforation. In the exemplary embodiment, the cochlea, sparing the RWM, was embedded in a 3D-printed acrylic holder using hybrid dental composite and light cured to adapt the round window niche to a 3 ml Franz™ Cell. The Franz™ Cell is a widely recognized standardized method for studying transdermal drug delivery. Microperforations were created with a 10 μm diameter needle (as shown in FIG. 32) and examined with fluorescent light microscopy (FSX-100, as shown in FIG. 31) as a function of time exposure.
In the exemplary embodiment show in FIGS. 33-34, a Franz Cell was customized in accordance with the present disclosure to include an adapter to allow analysis of a very small membrane in the Franz Cell. The adaptor depicted in FIGS. 33B and 34 was manufactured with a 3-dimensional printer, though alternative manufacturing techniques (and suitable materials) are contemplated to be within the scope of the disclosure. The adaptor includes a downwardly extending protrusion or lip (see reference numerals “A” and “B” in FIG. 33) which are configured to engage the Receptor portion of the Franz Cell.
Similarly, FIGS. 37A-C illustrate various Z-stacked perforation images which were compiled from 60 images taken at 5 μm intervals of RWM with perforation: A) bright field microscopy; B) bright field microscopy post diffusion with RhoB; C) Fluorescent microscopy
Manual perforations made with 10 μm needle tip produce an elliptical hole (see arrow in FIG. 38) with axes 30 μm (26-34)×47 μm (44-50). In one example, a manual perforation with 100 μm needle tip created an elliptical tear in the membrane Measuring […]×460 μm, as shown in FIG. 38 (in which the dot “D” indicates tip size).

[4] = Diffusion of 1 mM Rhodamine B across RWM in static Franz diffusion cells, with and without 12.5 μm microperforation; format: in vitro ADME, guinea pig; conditions: for time to reach 10 μM: expected
Procedure: The diffusion across guinea pig RWM, with and without microperforation, was developed and tested: cochleae, sparing the RWM, were embedded in 3D-printed acrylic holders using hybrid dental composite and light cured to adapt the round window niche to 3 ml Franz diffusion cells. Perforations were created with 12.5 μm diameter needles and examined with light microscopy. Diffusion of 1 mM Rhodamine B across RWM in static diffusion cells was measured via fluorescence microscopy.
In order to carry out this analysis, diffusion of RhoB through the RWM was performed on 12 Hartley Strain Guinea Pigs in a modified diffusion cell at room temperature. Franz™ Cell-type diffusion cells (PermeGear, Inc., Hellertown, Pa.) are made of borosilicate glass and have a 5 mm orifice and a 3 ml receptor volume with flat ground joints (FIG. 30). The cell consists of three parts (FIG. 33): donor chamber, membrane, and receptor chamber.
The donor chamber was filled with 0.3 ml of 1 mM RhoB in PBS meeting the conditions for continuous infinite dosing. Donor chamber was covered with Parafilm® for the duration of the experiment. Drug application surface was determined by size of RWM.
Guinea pig RWM was embedded in an acrylic holder with dental composites (FIG. 34). The acrylic holder was designed and 3D printed (Objet 24, Stratasys, MN) to allow for adaptation of the round window niche containing RWM to the diffusion cell. Dental composites (Dentsply, Milford, Del.) included primer (Prime & Bond® NT™) and a urethane modified Bis-GMA resin (TPH Spectra™) which were light cured at 20 s intervals with a 470 nm light emitting diode greater than 500 mW/cm^2. The diffusion cell was assembled with two custom expanded Polytetraflurane (PTFE) gaskets, 1.5 mm thick, to prevent leakage from the donor or receptor chambers at the diffusion cell/membrane interface. The acrylic holder was tested for reactivity with RhoB and was inert for >48 hours. The RWM was equilibrated in PBS solution for 30 minutes prior to application of RhoB. Membranes were embedded and equilibrated within 2 hours of euthanasia.
Microperforations were introduced in the RWM with manual application of a minutien insect pin (Size 000, 12.5 μm diameter tip, 250 μm diameter shaft) under a binocular microscope. All membranes were imaged before and after diffusion study using bright field, phase contrast or fluorescent microscopy and Z-stacking. Imaging was used to confirm the presence or absence of membrane perforation. 60 images at […] intervals were taken and compiled to create one image. ImageJ (Rasband, W. S., Image J, U.S. National Institutes of Health, Bethesda, Md.) was used to calculate the size of the membrane and, if present, perforation.
The receptor chamber was filled with 3 ml of PBS and continuously stirred at 650 rpm with a cylindrical Teflon® magnetic stirbar to allow rapid mixing of contents without development of a vortex. Sampling port allowed for extraction of fluid samples at various time points to monitor progression of diffusion. The set up and sampling conditions were validated for consistency in the following categories: 1) diffusion cell dimensions, 2) stir bar speed, and 3) sampling frequency, to increase the precision of results across experiments^23.
Sampling of the receiver chamber was made at 12 predetermined times over 24 hours and analyzed with fluorescent microscopy. At each time point 90 μL was removed using a stretched syringe from the center of the receptor chamber and the volume was replaced with 90 μL of fresh PBS. These diffusion experiments are considered static as solution from the receptor chamber is renewed by removal of a set quantity (90 μL) at sampling times and replacement of this volume with fresh medium. The removed 90 μL was then diluted with 360 μL PBS to reduce the effects of evaporation and maintain concentrations within the acceptable detection range of the microscope. The samples were placed on a tilt table to enhance mixing after dilution. […]

[5] = cited from earlier work; for D: diffusion coefficient

C[C@@H]1C[C@H]2[C@@H]3CCC4=CC(=O)C=C[C@]4(C)[C@@]3(F)[C@@H](O)C[C@]2(C)[C@@]1(O)C(=O)CO [Dexamethasone]
PRWM [1]: 5.0~35.0 × 10^−8 m/s

CCN(CC)c1ccc2c(-c3ccccc3C(=O)O)c3ccc(=[N+](CC)CC)cc-3oc2c1.[Cl-] [Rhodamine B]
predicted value of pore permeability based on the diffusion coefficient ([2]; not told): 4×10^−5 m/s
enhancement in diffusion ([3]; 10 μm needle, 30 × 47 μm perforation): 160 ×
enhancement in diffusion ([3]; 100 μm needle, 240 × 460 μm elliptical perforation): 3500 ×
Microperforated KP ([3]; guinea pig): 3.21×10^−6 m/s
time required to reach 250 μM ([3]; membranes with a small microperforation): 8.5 days
time required to reach 250 μM ([3]; unperforated membrane, 250 μM = ½ applied concentration): 3.7 years
Permeability KP RWM [4]: 0.51 ± 0.41 10^−8 ms^−1
permeability across the perforation itself [4]: 8.3±2.2×10^−5 m/s
permeability across the perforation relative to intact membrane [4]: 16,000 times
permeability coefficient of the RWM with microperforations [4]: 18.1±6.1×10^−8 m/s
time to reach 10 μM ([4]; 3×3 array of perforations): 30 min
time to diffuse 10 μM across the RWM ([4]; intact membrane): 7 days
increase in permeability / enhancement in diffusion with microperforation vs intact RWM ([4]; single 12.5 μm tip microperforation, 0.22% of membrane): 35 times
time to diffuse 10 μM across the RWM ([4]; single microperforation of approximately 2.5×10^−3 mm^2): under 5 hours
time to reach 10 μM ([4]; three perforations): 90 min
Diffusion Coefficient in water at 25° C. (298 K) [5]: 4.5 ± 0.4 10^−6 cm^2s^−1 and 4.27 ± 0.04 10^−6 cm^2s^−1

C[N+](C)(C)c1ccccc1 [TMPA]
Ppore [2]: 1.01 × 10^−4 m/s
D [5]: 1.01 × 10^−9 m2/s
permeability of the RWM ([1]; guinea pig model): 1.9×10^−8 m/s
PRWM [1]: 1.9 × 10^−8 m/s

Gentamicin
Ppore [2]: 6.82 × 10^−5 m/s
D [5]: 6.82 × 10^−10 m2/s
Diffusion Coefficient in water at 25° C. (298 K) [5]: 6.82 10^−6 cm^2s^−1
PRWM [1]: 3.5 ± 4.6 × 10^−8 m/s
